Entries after “also recorded” stand apart in the source; their conditions may differ.

Data set [1] is described as follows: Rat toxicology study, control mRNA in DV-140-F2 intramuscular (Example 8). It is filed as in vivo, Sprague-Dawley rats. Here is the method: Briefly, Sprague-Dawley rats (n=8) were treated with a control mRNA formulated in DV-140-F2 at 0.03 or 0.3 mg/kg or PBS vehicle. Injections were done 4 times over the course of 13 days and were administered intramuscularly into the hind limb. Whole blood was taken for hematology, and serum taken for clinical chemistry and cytokine analysis at 6 hours post the first dose and final dose, and 2 weeks post the final dose. Additionally, 2 of the animals were sacrificed at 6 hours post the final dose and 2 weeks post final dose and a gross necropsy was performed. Tissue samples were retained and histopathology run on select organs.

Assay in data set [2]: as above
It is filed as in vivo, Sprague-Dawley rats. As to conditions: Therapeutic dose scaled for rat: 4 doses in 2 weeks, 30 μg RNA IM.

A short description of data set [3]: Mouse efficacy studies, tolerability assessments (Example 8). It is filed as in vivo.
In another data set the target is T1, HVEM (Homo sapiens, UniProt Q92956).
T1 construct: host or cells: HVEM reporter cell line (not further described)
T1 sequence (Q92956 39-283): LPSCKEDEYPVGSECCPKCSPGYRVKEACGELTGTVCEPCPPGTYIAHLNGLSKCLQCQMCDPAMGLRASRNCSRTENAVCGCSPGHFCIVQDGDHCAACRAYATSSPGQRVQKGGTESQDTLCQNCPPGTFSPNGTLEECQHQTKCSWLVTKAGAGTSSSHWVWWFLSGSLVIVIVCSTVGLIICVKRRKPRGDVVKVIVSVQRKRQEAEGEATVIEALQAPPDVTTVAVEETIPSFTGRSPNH
The experiment in a line: HVEM activation by LIGHT-transfected cells (HVEM reporter cell line). It is filed as cell-based. The text has this:
FIGS. 1A and 1B depict the inhibition of the activation of membrane-stabilized LIGHT by soluble LIGHT.
FIG. 12 illustrates pre-blocking of soluble LIGHT in HVEM co-HEK transfected cells.
FIGS. 13A-13C are a comparison of HVEM activation with supernatant (blue) or cells (orange) for soluble LIGHT or membrane-stabilized LIGHT.
The incorporation of a modified membrane-stabilized LIGHT into a cancer immunotherapy allows for the effective targeting cancers, such as HPV-driven cancers.
[…] FIGS. 13A-13C show increased function of membrane-stabilized LIGHT on cells with HVEM reporter cell line and FIGS. 14A and 14B show increased cellular expression of membrane-stabilized LIGHT.

The test system of a further data set is CD3+ T cells. Description: T cell proliferation in co-culture with LIGHT-transfected HEK cells (Example 1). The class given is cell-based, human. As to conditions: versus soluble (Wt) LIGHT. Here is the method: (§1) LIGHT variants were formulated in MessengerMax mRNA Transfection Reagent. Human embryonic kidney (HEK) cells were transfected with the LIGHT variant constructs for cell surface expression of LIGHT. CellTrace Violet (Thermo Fischer Scientific) was used to label CD3+ T cells from the resulting peripheral blood mononuclear cells (PBMC). 100 ng/mL of soluble CD3 Antibody was added to the resulting labeled CD3+ T cells. The T cell proliferation and interferon-gamma (IFN-7) secretion was evaluated about 5 days of co-culture.

The subject of another data set is HEK cells. Description: Surface expression of LIGHT on transfected cells by flow cytometry using HVEM binding. The class given is cell-based, human. To be noted: compared to soluble (wild type) LIGHT.
Text: FIG. 2A-2D are graphs illustrating the membrane-bound protein produced by the membrane-stabilized LIGHT generated according to an aspect of this disclosure as compared to soluble LIGHT.
FIGS. 14A and 14B depict the assessment of surface expression of soluble LIGHT or membrane-stabilized LIGHT by flow cytometry using HVEM binding.
This enhanced membrane stability for the disclosed membrane-stabilized LIGHT may increase the beneficial activity of LIGHT.
as §1

Another data set has as its system primary human T cells. Description: Human T cell proliferation, ENG or WT hLIGHT mRNA with hIL-12 mRNA (Example 1A). It is filed as cell-based. As to conditions: anti-CD3 30 or 100 ng/mL, 4 days, relative to IL-12 and WT hLIGHT. Here is the method: This study was designed to compare the ability of ENG and WT hLIGHT mRNAs in combination with hIL-12 mRNA to stimulate primary human T cell proliferation. Human T cells were isolated from PBMCs from 1 healthy donor and stained with CellTrace Violet. HEK293 cells were transfected with hIL-12 mRNA (RNA-683) and WT hLIGHT (RNA-786) or ENG hLIGHT (RNA-1359) mRNA formulated in Lipofectamine MessengerMAX (0.5 ng each mRNA per 1000 cells). Control cells were transfected with noncoding mRNA control in the same way. Transfected HEK293 cells were cocultured with the T cells in a 1:5 ratio in the presence of 30 ng/mL or 100 ng/mL anti-CD3 antibody to mimic antigen specific TCR engagement for 4 days at 37° C., 5% CO2. CD8+ T cell proliferation was assessed by flow cytometry and the proliferation index was calculated. […] The results are shown in FIG. 10A, where ENG=engineered; HEK=human embryonic kidney; IL-12=interleukin-12; PBMC=peripheral blood mononuclear cell; WT=wildtype. The data in FIG. 10A represent mean±standard deviation (n=4). Statistical analysis was performed by unpaired student's t-test (P<0.05).

Setting [4] is: High dose in rat: 4 doses in 2 weeks, 100 μg RNA IM.
[5] abbreviates: Therapeutic dose in mouse: 3 doses 7 days apart, ~1-2 μg RNA IT or IM.

With `CCCCCCCCCCN(CC(N)=O)C(=O)CN(CCCCCCCCCC)C(=O)CN(CCCCCCCCCC)C(=O)CN(CCCCCCCCCC)C(=O)CNCCO` [Compound 140, N-(2-amino-2-oxoethyl)-N-decyl-2-(N-decyl-2-(N-decyl-2-(N-decyl-2-((2-hydroxyethyl)amino)acetamido)acetamido)acetamido)acetamide], the Gross organ pathology entry in data set [1] (setting [4]) and in data set [2] was “None observed” in each case. Besides, the “Injection site reactions or other clinical observations” value in data set [1] (setting [4]), in data set [2] and in data set [3] (setting [5]) was “None observed” each time. Further, the Clinical chemistries result in data set [1] (High dose in rat: 4 doses in 2 weeks, 100 μg RNA IM, compared to control) is “No meaningful changes”; in data set [2] (compared to control), “No meaningful changes”. The Hematology parameters result in data set [1] (High dose in rat: 4 doses in 2 weeks, 100 μg RNA IM, return to baseline by D30) is listed as “Some transient changes”; in data set [2] (compared to control), “No changes compared”. Besides, the Serum cytokines entry is reported as “Elevated levels in subset” in data set [1] (High dose in rat: 4 doses in 2 weeks, 100 μg RNA IM, subset of cytokines, return to baseline by D30) and “No changes compared” in data set [2] (compared to control). Also, the tolerability entry in data set [1] (rat toxicology studies) and in data set [3] (mouse efficacy studies) was “well-tolerated” each time. The Body weight result in data set [2] and in data set [3] (setting [5]) was “No changes compared” throughout.

B1: ENG hLIGHT: mRNA encoding human LIGHT with amino acids 66-92 replaced by 10 amino acid linker …; membrane-stabilized (nucleic acid)
chain: AGGCAUAGAAGUCGAGACACAGCCACUAAGUAAGCCACCAUGGAGGAGAGCGUGGUGCGGCCUAGCGUGUUCGUGGUCGACGGCCAGACCGACAUCCCCUUCACCAGACUGGGAAGAAGCCACAGAAGGCAGUCUUGCUCCGUGGCCAGAGUGGGCCUGGGCCUGCUCCUGCUGCUGAUGGGCGCUGGCCUGGCCGUGCAAGGCUGGUUCCUGCUGCAGCUGCACUGGCGGCUGGGCAGCAGCGCCUCUACCGAUAAGACCCACACCGUGAACCCUGCCGCCCACCUGACCGGCGCCAACAGCUCUCUGACCGGAUCUGGCGGACCUCUGCUGUGGGAGACACAGCUGGGCCUUGCUUUUCUGCGGGGCCUGAGCUACCACGACGGCGCUCUGGUGGUUACAAAGGCCGGCUACUACUACAUCUACAGCAAGGUGCAGCUGGGAGGCGUGGGUUGUCCACUGGGACUGGCCAGCACAAUCACACACGGCCUUUAUAAGCGGACCCCUAGAUACCCCGAGGAACUGGAACUGCUGGUCUCCCAGCAGAGCCCUUGCGGCAGAGCCACAAGCAGCAGCAGAGUGUGGUGGGACAGCUCAUUCCUGGGCGGCGUGGUGCAUCUGGAAGCCGGCGAGAAAGUGGUGGUCAGAGUGCUGGACGAGAGACUGGUGCGGCUGAGAGAUGGGACCCGCUCCUACUUCGGCGCCUUUAUGGUGUGAUAAGCGCCGCCUCCGGGACAGUGCACCCAGGCUGCGGCCCCUCCCCCGUCCUGGAGGUUCCCCAGCCCCACUUACCGCUUAAUGCGCCAAUAAACCAAUGAACGAAGCAAAAAAAAAAAAAAAAAAAAAAAAAAAAAAAAAAAAAAAAAAAAAAAAAAAAAAAAAAAAAAAAAAAAAAAAAAAAAAAAAAAAAAAAAAAAAAAAAAAAAAAAAAAAAAAAAAAAAAAAAAAAAAAAAAAAAAAAAAAAAAAAAAAAAAAAAAAAAAAAAAAAAAAAA
modifications: LIGHT ICD TM 1-66 RLG … LIGHT 92-240 1359, aka 1495 nt
notes: mRNA encoding human LIGHT with amino acids 66-92 replaced by 10 amino acid linker …; membrane-stabilized
Regarding B1, in the data set with HVEM (compared to WT LIGHT mRNA), the “bioactivity on transfected cells” value was “higher”. The T-cell proliferation result with CD3+ T cells (listed as 1359) is “increase”; with CD3+ T cells (listed as ENG LIGHT mRNA), “increased”. Moreover, the soluble fraction result with HEK cells is “significantly lower”. Besides, the “cell-surface expression of membrane-bound protein” value with HEK cells (listed as ENG LIGHT mRNA) is reported as “higher”; in the data set with HEK cells (listed as Engineered LIGHT), “significantly higher”. Also, the “CD8+ T cell proliferation and survival” value with primary human T cells is on record as “increased”.

B2: soluble LIGHT: Wild-type soluble human LIGHT (protein)
chain: MEESVVRPSVFVVDGQTDIPFTRLGRSHRRQSCSVARVGLGLLLLLMGAGLAVQGWFLLQLHWRLGEMVTRLPDGPAGSWEQLIQERRSHEVNPAAHLTGANSSLTGSGGPLLWETQLGLAFLRGLSYHDGALVVTKAGYYYIYSKVQLGGVGCPLGLASTITHGLYKRTPRYPEELELLVSQQSPCGRATSSSRVWWDSSFLGGVVHLEAGEEVVVRVLDERLVRLRDGTRSYFGAFMV
modifications: Human Wild Type LIGHT (786) aa
B2: the “effect of soluble LIGHT on HVEM activation/signaling by membrane-stabilized LIGHT” value with HVEM (presence of soluble LIGHT) is “decreases; also recorded: competes for HVEM binding and reduces signaling”.

B3: 1356: mRNA encoding LIGHT ICD + TM (1-66) + (Gly4Ser)2 + LIGHT 92-240 (nucleic acid)
chain: AGGCAUAGAAGUCGAGACACAGCCACUAAGUAAGCCACCAUGGAAGAGUCUGUGGUCAGACCUAGCGUGUUCGUGGUCGACGGCCAGACCGACAUCCCCUUCACCAGACUGGGAAGAAGCCAUAGAAGACAGAGCUGCAGCGUGGCCAGAGUGGGCCUCGGCCUGCUGCUGCUGCUGAUGGGCGCUGGCCUGGCCGUGCAAGGCUGGUUCCUGCUGCAGCUGCACUGGCGGCUGGGCGGAGGCGGCGGCUCUGGCGGCGGAGGCUCCGUGAACCCCGCCGCCCACCUGACCGGCGCCAACAGCAGCCUGACAGGCAGCGGCGGUCCUCUGCUGUGGGAAACCCAGCUGGGACUGGCUUUUCUGAGAGGCCUGAGCUACCACGACGGCGCCCUGGUGGUGACCAAGGCCGGCUAUUACUACAUCUACAGCAAGGUGCAGCUGGGCGGCGUUGGAUGUCCUCUGGGCCUGGCUUCUACAAUCACCCACGGCCUGUACAAGCGGACCCCUAGAUACCCUGAGGAACUGGAGCUGCUGGUGUCCCAGCAGUCCCCAUGCGGCCGGGCCACAAGCUCUUCUAGAGUGUGGUGGGAUAGCAGCUUCCUGGGCGGAGUGGUGCACCUCGAGGCCGGAGAGAAAGUGGUGGUGCGGGUGCUGGAUGAGAGACUGGUUAGGCUGCGCGACGGCACACGGAGCUACUUCGGCGCCUUUAUGGUGUGAUAAGCGCCGCCUCCGGGACAGUGCACCCAGGCUGCGGCCCCUCCCCCGUCCUGGAGGUUCCCCAGCCCCACUUACCGCUUAAUGCGCCAAUAAACCAAUGAACGAAGCAAAAAAAAAAAAAAAAAAAAAAAAAAAAAAAAAAAAAAAAAAAAAAAAAAAAAAAAAAAAAAAAAAAAAAAAAAAAAAAAAAAAAAAAAAAAAAAAAAAAAAAAAAAAAAAAAAAAAAAAAAAAAAAAAAAAAAAAAAAAAAAAAAAAAAAAAAAAAAAAAAAAAAAAA
modifications: LIGHT ICD TM 1-66 RLG Gly4Ser 2 LIGHT 92-240 1356 nt
With B3, the T-cell proliferation result in the data set with CD3+ T cells was “increase”.
